{
  "source": "patent US20250345370A1",
  "about": "“MICROBIAL LIBERATION OF N-METHYLSEROTONIN FROM ORANGE FIBER” (Washington University, priority 2022, published 2025)",
  "key": {"[1]": {"assay": "Tissue metabolites (liver glycogen and precursors, colonic glutamate) in germ-free mice given N-methylserotonin", "type": "in vivo, germ-free C57BL/6J mice", "method": "For experiments involving administration of N-methylserotonin to germ-free mice, a stock solution of the compound (100 mg/mL, Santa Cruz Biotechnologies) was prepared in sterile water and filter sterilized ([…]; Nalgene). The outer surface of tubes containing the stock solution was sterilized with Clidox (Pharmacal) and the tubes were introduced into gnotobiotic isolators using standard procedures. The stock solution was then diluted in darkened glass water bottles (Ancare) in order to administer doses of 1 mg/kg/day or 50 mg/kg/day (based on an experimentally determined average consumption of 5 mL of water/day/mouse). Every four days, bottles were replaced with new ones containing fresh N-methylserotonin. Each of the three arms of the experiment, including the control arm where unsupplemented drinking water was administered, consisted of 5 mice.\nFecal samples and body weights were collected weekly, while food and water intake were monitored daily by comparing pellet mass in the food hopper and the volume of water in water bottles at the beginning and end of a 24 h period and dividing these values by the number of mice per cage. All animals were euthanized between 0830 h and 0930 h without prior fasting. Luminal contents from the proximal and distal halves of the small intestine, the cecum and the colon, host tissues (liver, epididymal fat pads, gastrocnemius muscle, the distal quarter of the small intestine (ileum), cecum and entire colon) plus serum were collected, flash frozen in liquid nitrogen and stored at −80° C. prior to analyses.\nOther metabolites—Tissue (at least 10 mg) was placed in a reinforced 2 mL tube. A 20 times weight volume of extraction solvent was added (40% acetonitrile, 40% methanol, 20% water) and the tissue was disrupted as described herein. Samples were centrifuged at 12,000×g for 10 minutes at 4° C. A 200 μL aliquot of the resulting supernatant was transferred to a 2 mL glass tube and dried in a speed vacuum at room temperature (25° C.) for two hours. The dry extract was reconstituted in 100 μL of 90% water/10% acetonitrile and stored at −4° C. prior to injection; 5 μL was injected into a 1290 Infmity II UHPLC system coupled to a 6470 Triple Quadrupole LC/MS system equipped with a Jet Stream electrospray ionization source (Agilent Technologies). Chromatographic separation was performed on an Agilent ZORBAX Extend C18, […], 1.8 μm column, using the following gradient conditions: mobile phase A, 10 mM tributylamine and 15 mM acetic acid in 3% methanol (v/v); mobile phase B, 10 mM tributylamine and 15 mM acetic acid in 100% methanol; 0% solvent B (0-2 minutes); 0-20% solvent B (2-7.5 minutes); 20-45% solvent B (7.5-13 minutes); 45-99% solvent B (13-20 minutes); 99-0% solvent B (20-22 minutes) at a flow rate of 0.25 mL/minute. […] Transitions were taken from the Agilent Metabolomics dMRM Database.\nGlutamate is known to […] Arntl when directly applied to tissue slices. Knockout of the Per3 homolog Per2 reduces expression of the glutamate transporter (Eaatl, Slc1A3) and uptake of glutamate in the brain. These observations raise the possibility that one way that N-methylserotonin might influence colonic circadian regulators is through its effects on glutamate levels in this tissue."}, "[2]": {"assay": "N-methylserotonin degradation test in bacterial monocultures", "settings": "5 ng/ml added to monocultures of the 14 strains, 72-hour period", "method": "Experiments to determine whether N-methylserotonin is synthesized de novo by B. ovatus were carried out in 10 mL TYG with or without supplementation with tryptophan, tryptamine, serotonin, dimethylserotonin, trimethylserotonin, methyltryptamine, or S-adenosyl methionine (final concentrations; 5 mg/mL; all from Sigma). Experiments seeking to test the capacity of all 14 bacterial strains introduced into mice to degrade N-methylserotonin in vitro were carried out using 10 mL TYG and 50 ng N-methylserotonin, with samples collected every 24 hours. Assays were performed in triplicate for each condition, using the protocol described herein.\nSeveral other experiments were performed to characterize in vitro N-methylserotonin liberation by members of the 14 strain consortia."}, "[3]": {"settings": "methanol, 50 mg orange fiber"}, "5-Htr2A": {"biological_target": "5-Htr2A (Homo sapiens, UniProt P28223)", "sequence (P28223 whole entry)": "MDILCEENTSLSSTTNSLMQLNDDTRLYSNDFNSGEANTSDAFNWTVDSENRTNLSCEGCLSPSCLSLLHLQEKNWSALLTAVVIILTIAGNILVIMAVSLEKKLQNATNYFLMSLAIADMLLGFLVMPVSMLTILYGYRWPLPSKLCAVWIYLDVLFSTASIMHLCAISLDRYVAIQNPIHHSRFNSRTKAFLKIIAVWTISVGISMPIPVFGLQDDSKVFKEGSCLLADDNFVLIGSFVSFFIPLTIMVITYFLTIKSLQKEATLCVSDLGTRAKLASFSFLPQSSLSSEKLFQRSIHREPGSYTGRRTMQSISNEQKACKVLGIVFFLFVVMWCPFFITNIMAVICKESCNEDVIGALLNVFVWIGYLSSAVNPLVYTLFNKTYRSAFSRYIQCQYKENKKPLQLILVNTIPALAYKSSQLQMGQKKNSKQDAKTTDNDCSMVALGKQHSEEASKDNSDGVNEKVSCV", "settings": "in vitro studies; cited from earlier work"}, "[4]": {"assay": "Targeted LC-QqQ-MS of N-methylserotonin levels in gut contents, tissues, plasma and feces of gnotobiotic mice"}, "[5]": {"settings": "14-member consortium, 10% orange fiber diet"}},
  "note": "Read-outs that look alike come from different tables or passages of the source.",
  "data": [
    {"smiles": "CNCCc1c[nH]c2ccc(O)cc12", "note": "[N-methylserotonin]", "values": [
      {"measurement": "liver glucose-6-phosphate", "setting": "[1]; 1 mg/kg/day", "result": "the lower dose did not"},
      {"measurement": "liver glycogen", "setting": "[1]; 1 mg/kg/day", "result": "the lower dose did not"},
      {"measurement": "liver uridine", "setting": "[1]; 1 mg/kg/day", "result": "the lower dose did not"},
      {"measurement": "liver uridine monophosphate", "setting": "[1]; 1 mg/kg/day", "result": "the lower dose did not"},
      {"measurement": "liver glucose-6-phosphate", "setting": "[1]; 50 mg/kg/day", "result": "statistically significant decrease"},
      {"measurement": "liver glycogen", "setting": "[1]; 50 mg/kg/day", "result": "statistically significant increases"},
      {"measurement": "liver uridine", "setting": "[1]; 50 mg/kg/day", "result": "statistically significant decreases"},
      {"measurement": "liver uridine monophosphate", "setting": "[1]; 50 mg/kg/day", "result": "statistically significant decreases"},
      {"measurement": "glutamate levels in colonic tissue", "setting": "[1]; 50 mg/kg/day, untreated controls 11±0.9", "result": "21±1.4", "unit": "ng/mg tissue"},
      {"measurement": "input N-methylserotonin remaining intact/unmodified", "setting": "[2]", "result": "97±2", "unit": "%"},
      {"measurement": "N-methylserotonin released after two rounds of extraction", "setting": "[3]", "result": 31, "unit": "ng"},
      {"measurement": "N-methylserotonin released in total after 15 rounds", "setting": "[3]", "result": 171, "unit": "ng"},
      {"measurement": "N-methylserotonin recovered", "setting": "[3]; Extraction 1", "result": 16, "unit": "ng"},
      {"measurement": "N-methylserotonin recovered", "setting": "[3]; Extraction 2", "result": 15, "unit": "ng"},
      {"measurement": "N-methylserotonin recovered", "setting": "[3]; Extraction 3", "result": 16, "unit": "ng"},
      {"measurement": "N-methylserotonin recovered", "setting": "[3]; Extraction 4", "result": 15, "unit": "ng"},
      {"measurement": "N-methylserotonin recovered", "setting": "[3]; Extraction 5", "result": 14, "unit": "ng"},
      {"measurement": "N-methylserotonin recovered", "setting": "[3]; Extraction 6", "result": 13, "unit": "ng"},
      {"measurement": "N-methylserotonin recovered", "setting": "[3]; Extraction 7", "result": 12, "unit": "ng"},
      {"measurement": "N-methylserotonin recovered", "setting": "[3]; Extraction 8", "result": 10, "unit": "ng"},
      {"measurement": "N-methylserotonin recovered", "setting": "[3]; Extraction 9", "result": 11, "unit": "ng"},
      {"measurement": "N-methylserotonin recovered", "setting": "[3]; Extraction 10", "result": 10, "unit": "ng"},
      {"measurement": "N-methylserotonin recovered", "setting": "[3]; Extraction 11", "result": 9, "unit": "ng"},
      {"measurement": "N-methylserotonin recovered", "setting": "[3]; Extraction 12", "result": 9, "unit": "ng"},
      {"measurement": "N-methylserotonin recovered", "setting": "[3]; Extraction 13", "result": 8, "unit": "ng"},
      {"measurement": "N-methylserotonin recovered", "setting": "[3]; Extraction 14", "result": 7, "unit": "ng"},
      {"measurement": "N-methylserotonin recovered", "setting": "[3]; Extraction 15", "result": 6, "unit": "ng"},
      {"measurement": "binding", "setting": "5-Htr2A", "result": "binds"},
      {"measurement": "fecal N-methylserotonin levels", "setting": "[4]; 14-member community, orange fiber-supplemented HiSF-LoFV diet", "result": "131±19", "unit": "ng/g feces"},
      {"measurement": "N-methylserotonin in cecal contents", "setting": "[4]; [5]", "result": "173 ± 14", "unit": "ng/g"},
      {"measurement": "N-methylserotonin in cecal tissue", "setting": "[4]; [5]", "result": "130 ± 13", "unit": "ng/g"},
      {"measurement": "N-methylserotonin in colonic contents", "setting": "[4]; [5]", "result": "139 ± 13", "unit": "ng/g"},
      {"measurement": "N-methylserotonin in colonic tissue", "setting": "[4]; [5]", "result": "164 ± 25", "unit": "ng/g"},
      {"measurement": "N-methylserotonin in plasma", "setting": "[4]; [5]", "result": "1.22 ± 0.76", "unit": "ng/mL"},
      {"measurement": "N-methylserotonin in small intestine, liver, gastrocnemius muscle and kidney", "setting": "[4]; [5]", "result": "< 1", "unit": "ng/g"},
      {"measurement": "N-methylserotonin in cecal or colonic contents or intestinal and extra-intestinal tissues", "setting": "[4]; 14-member consortium, 10% pea fiber diet, below limits of detection", "result": "< 0.5", "unit": "ng/g"},
      {"measurement": "fecal N-methylserotonin levels", "setting": "[4]; germ-free mice, 1 mg/kg/day in drinking water", "result": "133.5 ± 15", "unit": "ng/g"}
    ]}
  ]
}
